How the values were obtained:
TadNaC6 [1] = target: T1, TadNaC6 (Trichoplax adhaerens, UniProt A0A5J6BVG3); test: whole-cell patch clamp, CHO-K1 cells; format: cell-based; details: agonist (activation); perfusion from pH 5 to pH 7.5 (figure legend pH 7.4); 10 μM to 3 mM tested; no EC50
T1 construct: gene ASIC6; full-length untagged channel from pTadNaC6-IR-EGFP (pIRES2-EGFP, EGFP expressed separately) in CHO-K1 cells; functional homomer, trimer by homology; cloning primers encode N-terminus MMAKGKIDH and C-terminus ADATNPDM-stop
T1 sequence (A0A5J6BVG3 1-492): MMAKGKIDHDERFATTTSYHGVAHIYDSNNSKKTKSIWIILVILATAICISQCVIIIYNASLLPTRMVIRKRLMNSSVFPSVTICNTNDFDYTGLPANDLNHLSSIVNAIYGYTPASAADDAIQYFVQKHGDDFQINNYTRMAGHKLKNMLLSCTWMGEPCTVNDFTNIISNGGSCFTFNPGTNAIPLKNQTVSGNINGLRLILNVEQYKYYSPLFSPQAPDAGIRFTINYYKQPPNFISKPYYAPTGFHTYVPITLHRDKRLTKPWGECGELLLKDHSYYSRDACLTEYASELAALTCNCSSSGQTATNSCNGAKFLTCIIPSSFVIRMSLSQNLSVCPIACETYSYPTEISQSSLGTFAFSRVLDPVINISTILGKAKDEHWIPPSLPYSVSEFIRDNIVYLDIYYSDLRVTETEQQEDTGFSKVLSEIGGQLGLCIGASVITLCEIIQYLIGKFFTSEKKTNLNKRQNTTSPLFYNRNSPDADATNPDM

TadNaC6 [2] = target: T1, TadNaC6; test: whole-cell patch clamp, CHO-K1 cells; format: cell-based

IC50 (TadNaC6 [2])	SMILES	fold current at 3 mM relative to pH 9 without amiloride (TadNaC6 [1])
–	N=C(N)NC(=O)c1nc(Cl)c(N)nc1N [amiloride]	~ 12 fold
578 ± 69.4 µM	N=C(N)c1ccc(/N=N/Nc2ccc(C(=N)N)cc2)cc1 [diminazene]	–
